Where a name gives a salt, the structure may show the parent alone.
Assays:
[1] = tested on: K. pneumoniae expressing the Class A Extended Spectrum Beta-Lactamase (ESBL) CTX-M-15; assay: In vitro antibacterial assay of β-lactamase inhibition (broth microdilution MIC), K. pneumoniae CTX-M-15; type: cell-based; details: in presence of Ceftazidime 8 μg/ml (Examples 1-56)
Outline: (§1)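 MIC read by eye after 16–20 h at 37° C, with CLSI-standard inocula of strains grown 3–5 h in CAMHB containing 50 μg/mL ampicillin. Compounds tested in final 2-fold dilutions from 8 to 0.015 μg/mL together with a β-lactam antibiotic.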

SHV-5 β-lactamase = target: T1, SHV-5 β-lactamase (Klebsiella pneumoniae, UniProt P0A3M1); assay: β-lactamase enzyme inhibition assay (nitrocefin substrate), SHV-5; type: biochemical
T1 construct: expressed as native untagged proteins; made in house; host or cells: E. coli BL21(DE3)
Outline: (§2)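 Enzyme was first mixed with serially diluted compound (100 to 0.005 μM) in PBS pH 7.0 and held 10 min at 37 °C. Next, nitrocefin was dispensed to 100 μM final, and hydrolysis was followed at 486 nm for 10 min. Percent inhibition was then calculated from maximum rates and fitted to an IC50.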

[2] = tested on: E. coli expressing the Class A ESBL SHV-5; assay: In vitro antibacterial assay of β-lactamase inhibition (broth microdilution MIC), E. coli SHV-5; type: cell-based; details: in presence of Ceftazidime 8 μg/ml (Examples 1-56)
Outline: as §1

[3] = tested on: P. aeruginosa expressing the Class B metallo β-lactamase VIM-2; assay: In vitro antibacterial assay of β-lactamase inhibition (broth microdilution MIC), P. aeruginosa VIM-2; type: cell-based; details: in presence of Ceftazidime 16 μg/mL (Examples 1-56)
Outline: as §1

OXA-23 β-lactamase = target: T2, OXA-23 β-lactamase (Acinetobacter baumannii, UniProt Q9L4P2); assay: β-lactamase enzyme inhibition assay (nitrocefin substrate), OXA-23 crude extract; type: biochemical; details: nitrocefin 100 μM, 37° C., PBS pH 7.0; read-out: OXA-23 IC50
T2 construct: crude β-lactamase extracts were prepared from 20 ml overnight cultures; endogenous in cells; host or cells: Acinetobacter baumannii cells containing OXA-23 (crude freeze-thaw extract)
Outline: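 Crude enzyme came from freeze-thaw extracts of mid-log OXA-23-carrying A. baumannii grown in MH-II broth at 37° C. Inhibitors (100–0.005 μM in PBS pH 7.0) were preincubated with the enzyme for 10 min at 37° C, then 100 μM nitrocefin (final) was added and read kinetically at 486 nm for 10 min. IC50 was taken from initial hydrolysis rates relative to uninhibited controls.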

CTX-M15 β-lactamase = target: T3, CTX-M15 β-lactamase (Escherichia coli, UniProt Q9EXV5); assay: β-lactamase enzyme inhibition assay (nitrocefin substrate), CTXM-15; type: biochemical
T3 construct: expressed as native untagged proteins; made in house; host or cells: E. coli BL21(DE3)
Outline: as §2

p99 AmpC β-lactamase = target: T4, p99 AmpC β-lactamase (Enterobacter cloacae, UniProt P05364); assay: β-lactamase enzyme inhibition assay (nitrocefin substrate), P99 AmpC; type: biochemical; details: nitrocefin 100 μM, 37° C., PBS pH 7.0; read-out: P99 AmpC IC50
T4 construct: expressed as native untagged proteins; made in house; host or cells: E. coli BL21(DE3)
Outline: as §2

[4] = tested on: K. pneumoniae expressing the Class A carbapenemase KPC-2; assay: microbe, parasite or virus in culture; type: cell-based; details: in presence of Ceftazidime 8 μg/ml (Examples 1-56)
Outline: as §1

[5] = target: T5, VIM-2 metallo β-lactamase (Pseudomonas aeruginosa, UniProt Q9K2N0); assay: β-lactamase enzyme inhibition assay (nitrocefin substrate), VIM-2; type: biochemical; details: nitrocefin 100 μM, 37° C., PBS pH 7.0; read-out: VIM-2 IC50
T5 construct: made in house
Outline: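 VIM-2 was expressed untagged in E. coli BL21(DE3) and purified by two Q sepharose anion-exchange runs plus gel filtration to >90% purity. Compounds at 100–0.005 μM in PBS pH 7.0 were preincubated with enzyme for 10 min at 37° C, then nitrocefin was added at 100 μM final. Hydrolysis was followed kinetically at 486 nm for 10 min; IC50 is the concentration halving the initial rate relative to no-inhibitor wells.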

KPC-2 β-lactamase = target: T6, KPC-2 β-lactamase (Klebsiella pneumoniae, UniProt Q9F663); assay: β-lactamase enzyme inhibition assay (nitrocefin substrate), KPC-2; type: biochemical
T6 construct: expressed as native untagged proteins; made in house; host or cells: E. coli BL21(DE3)
Outline: as §2

[6] = tested on: E. cloacae expressing the Class C P99+; assay: In vitro antibacterial assay of β-lactamase inhibition (broth microdilution MIC), E. cloacae P99+; type: cell-based; details: in presence of Ceftazidime 8 μg/ml (Examples 1-56)
Outline: as §1

T6 sequence (Q9F663 25-293 limits assumed): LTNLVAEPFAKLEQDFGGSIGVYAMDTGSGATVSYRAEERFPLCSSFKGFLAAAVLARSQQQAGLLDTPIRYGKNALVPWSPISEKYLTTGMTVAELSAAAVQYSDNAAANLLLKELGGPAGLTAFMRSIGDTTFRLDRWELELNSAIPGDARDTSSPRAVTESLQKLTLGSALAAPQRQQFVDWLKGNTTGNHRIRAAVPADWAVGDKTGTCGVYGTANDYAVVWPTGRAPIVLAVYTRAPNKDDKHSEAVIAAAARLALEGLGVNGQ
T3 sequence (Q9EXV5 entry or part of it): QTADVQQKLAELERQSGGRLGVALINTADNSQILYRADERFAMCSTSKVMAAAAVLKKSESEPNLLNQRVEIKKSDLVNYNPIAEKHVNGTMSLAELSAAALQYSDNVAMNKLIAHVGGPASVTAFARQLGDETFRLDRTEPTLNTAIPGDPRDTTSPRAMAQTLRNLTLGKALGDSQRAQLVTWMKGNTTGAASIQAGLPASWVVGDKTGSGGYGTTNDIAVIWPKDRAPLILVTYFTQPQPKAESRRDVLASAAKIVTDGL
T4 sequence (P05364 21-381): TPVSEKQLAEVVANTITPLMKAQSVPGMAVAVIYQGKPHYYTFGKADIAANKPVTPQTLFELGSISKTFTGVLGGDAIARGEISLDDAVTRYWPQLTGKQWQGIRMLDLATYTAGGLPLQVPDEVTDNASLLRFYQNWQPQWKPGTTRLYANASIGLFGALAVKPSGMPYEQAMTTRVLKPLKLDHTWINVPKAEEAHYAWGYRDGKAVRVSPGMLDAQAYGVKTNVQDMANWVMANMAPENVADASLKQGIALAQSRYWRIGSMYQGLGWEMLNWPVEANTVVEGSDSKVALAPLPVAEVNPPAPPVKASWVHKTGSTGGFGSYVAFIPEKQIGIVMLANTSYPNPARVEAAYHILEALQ
T2 sequence (Q9L4P2 18-273): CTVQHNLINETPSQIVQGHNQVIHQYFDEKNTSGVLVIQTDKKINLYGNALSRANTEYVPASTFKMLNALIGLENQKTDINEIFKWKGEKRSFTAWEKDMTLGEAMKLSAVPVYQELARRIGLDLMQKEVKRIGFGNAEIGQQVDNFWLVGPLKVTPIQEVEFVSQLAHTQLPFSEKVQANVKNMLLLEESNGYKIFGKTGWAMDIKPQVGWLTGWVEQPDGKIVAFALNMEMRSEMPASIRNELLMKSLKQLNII
T1 sequence (P0A3M1 22-286): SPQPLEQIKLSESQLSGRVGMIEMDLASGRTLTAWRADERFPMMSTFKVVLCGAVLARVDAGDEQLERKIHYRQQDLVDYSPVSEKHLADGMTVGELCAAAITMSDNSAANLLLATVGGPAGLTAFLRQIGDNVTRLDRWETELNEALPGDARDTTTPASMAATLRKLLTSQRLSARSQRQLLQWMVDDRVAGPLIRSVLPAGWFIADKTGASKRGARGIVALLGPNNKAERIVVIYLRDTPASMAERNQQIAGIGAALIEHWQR

Row | SMILES | MIC of example compound, K. pneumoniae CTX-M-15 [1] [µg/mL] | IC50 (SHV-5 β-lactamase) [nM] | MIC of example compound, E. coli SHV-5 [2] [µg/mL] | MIC of example compound, P. aeruginosa VIM-2 [3] [µg/mL] | IC50 (OXA-23 β-lactamase) [nM] | IC50 (CTX-M15 β-lactamase) [nM] | IC50 (p99 AmpC β-lactamase) [nM] | MIC of example compound, K. pneumoniae KPC-2 [4] [µg/mL] | IC50 [5] [nM] | IC50 (KPC-2 β-lactamase) [nM] | MIC of example compound, E. cloacae P99+ [6] [µg/mL]
1 | NCCNCc1cccc(C(=O)N[C@@H](Cc2cccc(C(=O)O)c2O)B(O)O)c1 [Example 18, (1R)-[3-{(2-aminoethylamino)-methyl}-benzoylamino]-(3-carboxy-2-hydroxy)benzyl-methylboronic acid formate] | 0.5 | 257 | 8 | >8 | 41 | 1 | 0.3 | 0.06 | 99 | 14 | 0.25
2 | O=C(N[C@@H](Cc1cccc(C(=O)O)c1O)B(O)O)c1cccc(CNCc2cccnc2)c1 [Example 19, (1R)-(3-{[(pyridin-3-ylmethyl)amino]methyl}-benzoylamino)-(3-carboxy-2-hydroxy)benzyl-methylboronic acid formate] | 2 | 54 | 8 | >8 | 19 | 1 | 0.2 | 0.12 | 510 | 6 | 2
3 | O=C(N[C@@H](Cc1cccc(C(=O)O)c1O)B(O)O)c1cccc(CN2CCNCC2)c1 [Example 20, (1R)-(3-piperazin-1-ylmethyl-benzoylamino-(3-carboxy-2-hydroxy)benzyl-methylboronic acid formate] | 1 | 42 | 4 | >8 | 22 | 20 | 0.3 | 0.03 | 179 | 9 | 2
4 | CNCc1cccc(C(=O)N[C@@H](Cc2cccc(C(=O)O)c2O)B(O)O)c1 [Example 21, (1R)-(3-methylaminomethyl-benzoylamino)-(3-carboxy-2-hydroxy)benzyl-methylboronic acid formate] | 1 | 830 | 4 | >8 | 33 | 3 | 2 | 0.01 | 142 | 19 | 0.25
5 | Cc1cc(NCc2cccc(C(=O)N[C@@H](Cc3cccc(C(=O)O)c3O)B(O)O)c2)no1 [Example 28, (1R)-[3-{(5-methyl-isoxazol-3-ylamino)-methyl}-benzoylamino]-(3-carboxy-2hydroxy)benzyl-methylboronic acid formate] | 4 | 15 | 8 | >8 | 9 | 0.7 | 0.2 | 2 | 304 | 4 | 2
6 | NCc1cccc(CC(=O)N[C@@H](Cc2cccc(C(=O)O)c2O)B(O)O)c1 [Example 29, (1R)-[2-(3-aminomethyl-phenyl)-acetylamino]-(3-carboxy-2hydroxy)benzyl-methylboronic acid formate] | 0.12 | 5 | 0.5 | >8 | 591 | 9 | 6 | 0.03 | 882 | 16 | 0.12
7 | NCc1ccc(CC(=O)N[C@@H](Cc2cccc(C(=O)O)c2O)B(O)O)cc1 [Example 30, (1R)-[2-(4-aminomethyl-phenyl)-acetylamino]-(3-carboxy-2hydroxy)benzyl-methylboronic acid formate] | 0.06 | 3 | 0.5 | >8 | 252 | 7 | 12 | 0.01 | 271 | 9 | 0.12
8 | O=C(N[C@@H](Cc1cccc(C(=O)O)c1O)B(O)O)c1cccc(CNc2nccs2)c1 [Example 31, (1R)-[3-(thiazol-2-ylaminomethyl)-benzoylamino]-(3-carboxy-2-hydroxy)benzyl-methylboronic acid] | 4 | 13 | 8 | >8 | 10 | 0.5 | 0.6 | 0.25 | 295 | 3 | 2
9 | CC(=O)NCc1ccc(CC(=O)N[C@@H](Cc2cccc(C(=O)O)c2O)B(O)O)cc1 [Example 32, (1R)-[2-(4-acetylaminomethyl-phenyl)-acetylamino]-(3-carboxy-2hydroxy)benzyl-methylboronic acid] | 0.5 | 0.3 | 0.5 | >8 | 116 | 2 | 2 | 4 | > 1000 | 4 | >8
10 | CNCc1ccc(CC(=O)N[C@@H](Cc2cccc(C(=O)O)c2O)B(O)O)cc1 [Example 33, (1R)-[2-(4-methylaminomethyl-phenyl)-acetylamino]-(3-carboxy-2hydroxy)benzyl-methylboronic acid formate] | 0.12 | 5 | 0.5 | >8 | 379 | 8 | 7 | 0.06 | 336 | 12 | 0.25
11 | O=C(Cc1ccc(CNCCO)cc1)N[C@@H](Cc1cccc(C(=O)O)c1O)B(O)O [Example 34, (1R)-[2-{4-((2-hydroxy-ethylamino)-methyl)-phenyl}-acetylamino]-(3-carboxy-2hydroxy)benzyl-methylboronic acid formate] | 0.12 | 5 | 0.5 | >8 | 256 | 7 | 4 | 0.03 | 580 | 18 | 0.5

Reference: patent US20100292185A1, “BETA-LACTAMASE INHIBITORS” (priority 2009, published 2010)
